Measurements reported in article PMC2866327, “Designed Inhibitors of Insulin-Degrading Enzyme Regulate the Catabolism and Activity of Insulin” (PLoS ONE, 2010).
Values joined by “and” are separate entries in the source; they are usually repeats but may differ in a detail not shown here. Equal entries are not always repeated. Where two headings read alike, the source gives them in different places.

Key:
IDE [1] = molecular target: T1, IDE (Homo sapiens, UniProt P14735); assay: Cell-based assays (not shown)
T1 sequence (P14735 whole entry): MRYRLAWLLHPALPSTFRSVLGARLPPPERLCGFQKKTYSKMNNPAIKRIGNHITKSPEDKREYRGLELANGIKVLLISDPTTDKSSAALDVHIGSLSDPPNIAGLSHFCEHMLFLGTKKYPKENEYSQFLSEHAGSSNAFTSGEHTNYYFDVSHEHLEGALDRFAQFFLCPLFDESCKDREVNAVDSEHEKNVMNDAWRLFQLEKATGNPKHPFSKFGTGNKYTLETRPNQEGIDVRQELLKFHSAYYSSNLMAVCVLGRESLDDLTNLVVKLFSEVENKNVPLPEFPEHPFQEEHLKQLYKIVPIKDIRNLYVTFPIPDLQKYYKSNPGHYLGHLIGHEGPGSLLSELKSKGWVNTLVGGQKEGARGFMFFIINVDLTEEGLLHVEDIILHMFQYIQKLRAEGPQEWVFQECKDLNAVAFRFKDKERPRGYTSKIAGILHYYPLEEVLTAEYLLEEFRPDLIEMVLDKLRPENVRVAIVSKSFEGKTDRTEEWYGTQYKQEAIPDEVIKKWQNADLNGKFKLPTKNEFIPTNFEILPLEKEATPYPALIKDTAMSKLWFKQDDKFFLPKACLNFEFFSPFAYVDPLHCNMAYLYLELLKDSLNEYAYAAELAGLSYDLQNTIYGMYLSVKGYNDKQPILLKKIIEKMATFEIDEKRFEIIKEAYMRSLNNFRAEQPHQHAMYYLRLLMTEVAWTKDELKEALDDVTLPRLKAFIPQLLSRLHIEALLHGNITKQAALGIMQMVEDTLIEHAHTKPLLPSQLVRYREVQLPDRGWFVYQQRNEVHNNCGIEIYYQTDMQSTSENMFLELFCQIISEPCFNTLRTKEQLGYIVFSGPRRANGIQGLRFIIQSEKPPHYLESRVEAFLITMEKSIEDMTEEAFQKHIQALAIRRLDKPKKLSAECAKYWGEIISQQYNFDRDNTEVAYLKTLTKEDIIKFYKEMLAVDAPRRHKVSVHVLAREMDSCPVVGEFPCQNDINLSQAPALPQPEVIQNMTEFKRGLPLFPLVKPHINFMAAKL

IDE [2] = molecular target: T1, IDE; assay: In vitro IDE enzymatic assay (hydrolysis of FRET1, SP1, FAβB, 125I-insulin or insulin by HTRF); assay type: biochemical; design: made in house; host or cells: bacteria; conditions: for IC50: commercially available hydroxamic acids
Description: Degradation of unmodified recombinant human insulin (Sigma-Aldrich) and FITC-ins [28] (Invitrogen) was assessed using a homogeneous time-resolved fluorescence (HTRF)-based assay (CIS-Bio).

IDE [3] = molecular target: T1, IDE; assay: High-throughput screening, Aβ degradation assay; assay type: biochemical; conditions: high-throughput screening hit
Source text: The few IDE inhibitors currently in use are generally non-selective and/or highly toxic, and all suffer from extremely low potency, requiring mM concentrations to achieve complete inhibition (Table S1). To develop improved inhibitors of IDE, we initially conducted high-throughput screening on ∼115,000 compounds, using a previously developed Aβ degradation assay. Although several inhibitors were discovered, most of these were either toxic, thiol-alkylating compounds [18] […] Among the remaining inhibitors, just a single compound, known as nullscript

MMP-3 = conditions: best known target MMP-3; no reference given; cited from earlier work
CHO-IR cells [4] = assay: Quantification of prebound 125I-insulin catabolism; assay type: cell-based; conditions: 10 µM inhibitor, 5 min at 37°C
Description: Confluent monolayers of CHO-IR cells grown in 6-well culture dishes were cold loaded with 240 pM ^125I-insulin for 1 h and washed 3 times with ice-cold HBSS/1% BSA. […] Following harvesting of cells by scraping, ^125I levels were quantified by gamma counter (Beckman).

CHO-IR cells [5] = assay: Live-cell imaging of intracellular insulin catabolism (FITC-ins); assay type: cell-based; conditions: FITC-ins-loaded CHO-IR cells, Ii1 10 µM, 22°C
Description: CHO-IR cells were cultured on poly-D-lysine glass bottom culture dishes (MatTek Corp.), loaded with FITC-ins (2 µM; Invitrogen) for 2 h at 37°C, washed with Hank's balanced salt solution (HBSS), then imaged consecutively at fixed intervals by fluorescence microscopy at 22°C. Intracellular and extracellular fluorescence in the resulting images was quantified using MetaMorph software according to manufacturer's recommendations (Molecular Devices).

CHO-IR cells [6] = assay: Cell-based extracellular insulin degradation assay, CHO-IR cells
Source text: (§1) Recombinant human insulin (Sigma) was applied to CHO-IR cells or HeLa cells grown to near-confluency on 96-well plates under normal cell culture conditions, and its disappearance over time in the presence of different concentrations of IDE inhibitors or vehicle was quantified using a HTRF-based insulin assay (CIS-Bio). CHO-IR cells were a generous gift from Dr. Michel Bernier (National Instutute on Aging) and HeLa cells were purchased from American Type Culture Collection.

[7] = test system: IR autophosphorylation (Tyr 1146) in CHO-IR cells; assay: IR autophosphorylation assay (ELISA); assay type: cell-based, human; conditions: CHO-IR cells cold-loaded with insulin, 10 µM inhibitor, 5 min at 37°C
Description: CHO-IR cells were grown to near confluency in 6-well plates, washed, then starved for 6 h in insulin-free medium (DMEM/0.1% BSA). Cells were then cold-loaded with human insulin essentially as described. Briefly, after cooling the cells to 4°C, the medium was replaced with ice-cold HBSS/1% BSA supplemented with insulin (10 nM), incubated at 4°C for 1 h, washed 3 times with ice-cold HBSS/1% BSA. After addition of ice-cold HBSS/1% BSA supplemented with IDE inhibitors (10 µM) or DMSO, the cells were incubated at 37°C for 5 min, then rapidly cooled on ice. Cell lysates were harvested using manufacturer-provided cell-lysis buffer (Cell Signaling Technology) supplemented with additional phosphatase inhibitors (Millipore). IR autophosphorylation (Tyr 1146) and total IR levels were quantified by ELISAs (Cell Signaling Technology), and confirmed by western blotting with the same antibodies used for ELISAs or GAPDH as a loading control.

cathepsin D = molecular target: T2, cathepsin D (Bos taurus, UniProt P80209); assay: Cathepsin D activity (Cathepsin D Assay Kit); assay type: biochemical
T2 construct: purchased Sigma-Aldrich
T2 sequence (P80209 45-390): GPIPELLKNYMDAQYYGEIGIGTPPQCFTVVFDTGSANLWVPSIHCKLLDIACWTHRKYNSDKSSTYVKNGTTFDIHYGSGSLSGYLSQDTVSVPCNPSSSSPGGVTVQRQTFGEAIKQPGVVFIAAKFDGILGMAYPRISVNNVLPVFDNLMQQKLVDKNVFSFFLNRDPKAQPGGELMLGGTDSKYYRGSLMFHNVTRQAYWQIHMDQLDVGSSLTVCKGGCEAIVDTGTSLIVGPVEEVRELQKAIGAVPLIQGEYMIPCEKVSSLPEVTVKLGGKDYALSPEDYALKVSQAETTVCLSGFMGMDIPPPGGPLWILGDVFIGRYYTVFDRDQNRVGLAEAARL
Description: Activity of cathepsin B was assessed by monitoring hydrolysis of Z-LR-AMC (Enzo Life Sciences International), that of cathepsin D using the Cathepsin D Assay Kit (Sigma-Aldrich), and that of the 20S proteasome using the 20S Proteasome Assay Kit for Drug Discovery (Enzo Life Sciences International).

CHO-IR cells [8] = test system: CHO-IR cells
HeLa cells = assay: Cell-based extracellular insulin degradation assay, HeLa cells
Source text: as §1

MMP-13 = conditions: best known target MMP-13; no reference given; cited from earlier work
IDE [9] = molecular target: T1, IDE; conditions: cited from earlier work; for IC50: known IDE inhibitors, no reference given
MMP-8 = conditions: best known target MMP-8; no reference given; cited from earlier work
MMP-2 = conditions: best known target MMP-2; no reference given; cited from earlier work
TACE = conditions: best known target TACE; no reference given; cited from earlier work
[10] = focused library of retro-inverso peptide hydroxamates Xaa-Arg-Tyr, modification at P1', Fig. 2B, read-out: Ki

With O=C(CCCN1C(=O)c2cccc3cccc(c23)C1=O)NO [Nullscript] the “effect in cell-based assays” value (IDE [1]) was “ineffective”, the IC50 (IDE [2]) was 900 nM and the IC50 values (IDE [3]) was “submicromolar”.
For N#Cc1ccc(-c2ccc(OCCC(=O)NO)cc2)cc1 [MMP-3 Inhibitor VII, reference compound], the IC50 (MMP-3) is given as 25 nM and the IC50 (IDE [2]) is given as over 100000 nM.
In the case of N=C(N)NCCC[C@H](NC(=O)[C@@H](CC(=O)NO)Cc1ccc2ccccc2c1)C(=O)N[C@@H](Cc1c[nH]c2ccccc12)C(=O)N[C@@H](CCC(=O)O)C(N)=O [Ii1], the “decrease of prebound 125I-insulin” value (CHO-IR cells [4]) is reported as “inhibited completely”, the “intra- and extracellular FITC fluorescence over time” value (CHO-IR cells [5]) is reported as “remained essentially constant” and the “IC50 for inhibition of degradation of extracellular insulin” value (CHO-IR cells [6]) is reported as “comparable to that obtained in vitro”. For the same compound, the “insulin catabolism (progress curve)” value (CHO-IR cells [6]; Ii1 10 µM) was “completely inhibited”, the “insulin-stimulated IR autophosphorylation” value [7] was “consistently potentiated” and the “inhibition of cathepsin D” value (cathepsin D) was “not”. For the same compound, the “Hill slopes for inhibition” value (IDE [2]; all substrates tested) was under 1, the Ki (IDE [2]; conventional peptide hydroxamates, Fig. 1, read-out: Ki) was 1.7 nM and ~1.7 nM and the mode of inhibition (IDE [2]; hydrolysis of Aβ) was “purely competitive”. The mode of inhibition (IDE [2]; hydrolysis of insulin) was “purely competitive”, the Ki (IDE [2]; ki^app, Substrate: 125I-Ins) was 16.3 ± 4.2 nM and the Ki (IDE [2]; ki^app, Substrate: FAβB) was 15.7 ± 2 nM. The Ki (IDE [2]; ki^app, Substrate: HTRF-Ins) was 16.6 ± 3.1 nM, the Ki (IDE [2]; ki^app, Substrate: SP1) was 2.55 ± 0.84 nM and the toxicity (CHO-IR cells [8]) was “No toxicity”. For the same compound, the “IC50 for inhibition of degradation of extracellular insulin” value (HeLa cells) was “comparable to that obtained in vitro” and the “insulin catabolism (progress curve)” value (HeLa cells; Ii1 10 µM) was “completely inhibited”.
In the case of CC(=O)N[C@H](CCC(=O)NCCNc1cccc2c(S(=O)(=O)O)cccc12)C(=O)N[C@H](Cc1ccc(O)cc1)C(=O)N[C@H](Cc1ccc(C(=O)c2ccccc2)cc1)C(=O)N[C@@H](CC(=O)NO)Cc1ccc2ccccc2c1 [ML3-XF, Hx-2Nap-Bpa-Tyr-Glu(EDANS)-Ac], the “decrease of prebound 125I-insulin” value (CHO-IR cells [4]) is reported as “inhibited completely” and the “insulin-stimulated IR autophosphorylation” value [7] is reported as “consistently potentiated”.
Compound N=C(N)NCCC[C@@H](NC(=O)[C@H](N)Cc1ccc(O)cc1)C(=O)N[C@@H](CC(=O)NO)C(c1ccccc1)c1ccccc1 [diphenylalanine] has a Ki (IDE [2]; [10]) of over 500000 nM.
Work on N=C(N)NCCC[C@@H](NC(=O)[C@H](N)Cc1ccc(O)cc1)C(=O)N[C@@H](CC(=O)NO)Cc1ccc(F)cc1 [4-fluorophenylalanine] yielded a Ki (IDE [2]; [10]) of 7000 nM.
In the case of CC(C)C[C@H](CC(=O)NO)C(=O)N[C@@H](Cc1ccc2ccccc2c1)C(=O)N[C@@H](C)C(N)=O [TAPI-0, reference compound], the IC50 (MMP-13) is given as 0.2 nM and the IC50 (IDE [2]) is given as 9000 nM.
For c1cnc2c(c1)ccc1cccnc12 [1,10 phenanthroline], the IC50 (IDE [9]) is listed as 300000 nM.
In the case of CCN1C(=O)C=CC1=O [N-ethylmaleimide], the IC50 (IDE [9]) is given as 220000 nM.
For COc1ccc(S(=O)(=O)N2Cc3ccccc3C[C@@H]2C(=O)NO)cc1 [MMP-8 Inhibitor I, reference compound], the IC50 (MMP-8) is listed as 4 nM and the IC50 (IDE [2]) is listed as over 100000 nM.
For O=C(NO)[C@@H](Cc1ccccc1)NS(=O)(=O)c1ccc(-c2ccccc2)cc1 [MMP-2/9 Inhibitor II, reference compound], the IC50 (MMP-2) is listed as 17 nM and the IC50 (IDE [2]) is listed as over 100000 nM.
For N=C(N)NCCC[C@@H](NC(=O)[C@H](N)Cc1ccc(O)cc1)C(=O)N[C@@H](CC(=O)NO)Cc1ccc2ccccc2c1 [2-naphthylalanine], the “gain in potency relative to Phe at P1'” value (IDE [2]; retro-inverso library) was about 100 fold.
In the case of CC(C)C[C@H](CC(=O)NO)C(=O)N[C@@H](Cc1ccc2ccccc2c1)C(=O)N[C@@H](C)C(=O)NCCN [TAPI-1, reference compound], the IC50 (TACE) is given as 100 nM and the IC50 (IDE [2]) is given as 3000 nM.
In the case of CNC(=O)[C@H](Cc1c[nH]c2ccccc12)NC(=O)[C@@H](CC(=O)NO)CC(C)C [GM6001 (Galardin), reference compound], the IC50 (MMP-8) is listed as […] and the IC50 (IDE [2]) is listed as 6000 nM.
For COc1ccc(S(=O)(=O)N(CC(=O)NO)CC(C)C)cc1 [MMP-3 Inhibitor II, reference compound], the IC50 (MMP-3) is given as 130 nM and the IC50 (IDE [2]) is given as over 100000 nM.
Compound N=C(N)NCCC[C@@H](NC(=O)[C@H](N)Cc1ccc(O)cc1)C(=O)N[C@@H](CC(=O)NO)Cc1cccc(F)c1 [3-fluorophenylalanine] has a Ki (IDE [2]; [10]) of 7000 nM.
Work on N=C(N)NCCC[C@@H](NC(=O)[C@H](N)Cc1ccc(O)cc1)C(=O)N[C@@H](CC(=O)NO)Cc1cccc2ccccc12 [1-naphthylalanine] yielded a Ki (IDE [2]; [10]) of 700 nM.
In the case of O=C(O)CN(CCN(CC(=O)O)CC(=O)O)CC(=O)O [EDTA], the “inhibition of IDE” value (IDE [9]; ref [18], [40]) is listed as “does not inhibit IDE except after prolonged incubation”.
Work on CC(C)(C)c1ccc(C[C@H](CC(=O)NO)NC(=O)[C@@H](CCCNC(=N)N)NC(=O)[C@H](N)Cc2ccc(O)cc2)cc1 [4-(tert-butyl)-phenylalanine] yielded a Ki (IDE [2]; [10]) of 16000 nM.
In the case of CC(C)C[C@H](CC(=O)NO)C(=O)N[C@H](C(=O)N[C@@H](C)C(=O)NCCN)C(C)(C)C [TAPI-2, reference compound], the IC50 (TACE) is given as 5000 nM and the IC50 (IDE [2]) is given as 11000 nM.
For CNC(=O)C(CCc1ccccc1)NC(=O)C(CC(=O)NO)CC(C)C (stereo not shown) [MMP Inhibitor III, reference compound], the IC50 (MMP-13) is listed as 0.1 nM and the IC50 (IDE [2]) is listed as over 100000 nM.
